Converted amounts (≈) assume the structure as drawn.
Columns and labels:
Assay type in all cases: functional
[1] = system: Bacillus subtilis; experiment: Antibacterial activity against Bacillus subtilis MTCC 441 assessed as reduction in microbial growth
[2] = system: Aspergillus niger; experiment: Antifungal activity against Aspergillus niger MTCC 8189 assessed as inhibition of fungal growth
[3] = system: Staphylococcus epidermidis; experiment: Antibacterial activity against Staphylococcus epidermidis assessed as reduction in microbial growth
[4] = system: Candida albicans; experiment: Antifungal activity against Candida albicans MTCC 227 assessed as inhibition of fungal growth
[5] = system: Escherichia coli; experiment: Antibacterial activity against Escherichia coli MTCC 16521 assessed as reduction in microbial growth
[6] = system: Staphylococcus aureus; experiment: Antibacterial activity against methicillin-resistant Staphylococcus aureus assessed as reduction in microbial growth incubated for 18 to 24 hrs by serial dilution method; conditions: time 18-24 hrs
[7] = system: Staphylococcus aureus; experiment: Antibacterial activity against methicillin-sensitive Staphylococcus aureus assessed as reduction in microbial growth incubated for 18 to 24 hrs by serial dilution method; conditions: time 18-24 hrs
[8] = system: Staphylococcus aureus; experiment: Antibacterial activity against Staphylococcus aureus assessed as reduction in microbial growth incubated for 18 to 24 hrs by serial dilution method; conditions: time 18-24 hrs
[9] = system: Staphylococcus epidermidis; experiment: Antibacterial activity against Methicillin-resistant Staphylococcus epidermidis assessed as bacterial growth inhibition
[10] = system: Enterococcus faecium; experiment: Antibacterial activity against Enterococcus faecium assessed as inhibition of bacterial growth
[11] = system: Enterococcus faecalis; experiment: Antibacterial activity against Enterococcus faecalis assessed as bacterial growth inhibition
[12] = system: Staphylococcus aureus; experiment: Antibacterial activity against Methicillin-resistant Staphylococcus aureus assessed as bacterial growth inhibition
[13] = system: Staphylococcus epidermidis; experiment: Antibacterial activity against Methicillin-sensitive Staphylococcus epidermidis assessed as bacterial growth inhibition
[14] = system: Staphylococcus aureus; experiment: Antibacterial activity against Methicillin-sensitive Staphylococcus aureus assessed as bacterial growth inhibition
[15] = system: Staphylococcus epidermidis; experiment: Antibacterial activity against Staphylococcus epidermidis assessed as inhibition of bacterial growth by microdilution method
[16] = system: Staphylococcus aureus; experiment: Antibacterial activity against Staphylococcus aureus assessed as inhibition of bacterial growth by microdilution method
[17] = system: Bacillus subtilis; experiment: Antibacterial activity against Bacillus subtilis assessed as inhibition of bacterial growth by microdilution method

Row | Structure (SMILES) | MIC [1] [µM] | MIC [2] [µM] | MIC [3] [µM] | MIC [4] [µM] | MIC [5] [µM] | MIC [6] [µg/mL] | MIC [7] [µg/mL] | MIC [8] [µg/mL] | also measured
1 | COc1ccc(NC(=O)NCc2cn(CCCn3cc(CNC(=O)Nc4ccc(OC)cc4)nn3)nn2)cc1 | 6 | 6 (≈ 3.21 µg/mL) | 6 | 6 (≈ 3.21 µg/mL) | 6 |  |  |  | 
2 | COc1c(N2CCNC(C)C2)c(F)cc2c(=O)c(C(=O)O)cn(C3CC3)c12 (stereo not given) [GATIFLOXACIN] |  |  |  |  |  | 0.12 | 0.12 | 0.12 | 
3 | CCO/N=C1/C(=O)N(Cc2cn(CC(=O)N3CCC[C@@H]4CN(c5c(F)cc6c(=O)c(C(=O)O)cn(C7CC7)c6c5OC)C[C@@H]43)nn2)c2cc(F)ccc21 |  |  |  |  |  |  |  |  | MIC [9]: 0.06 µg/mL (≈ 0.0821 µM); MIC [10]: 0.06 µg/mL (≈ 0.0821 µM); MIC [11]: 0.06 µg/mL (≈ 0.0821 µM); MIC [12]: 0.06 µg/mL (≈ 0.0821 µM); MIC [13]: 0.06 µg/mL (≈ 0.0821 µM); MIC [14]: 0.06 µg/mL (≈ 0.0821 µM)
4 | O=C(NCc1cn(CCCn2cc(CNC(=O)Nc3ccc(F)cc3)nn2)nn1)Nc1ccc(F)cc1 | 6 | 6 (≈ 3.06 µg/mL) | 6 | 6 (≈ 3.06 µg/mL) | 6 |  |  |  | 
5 | COc1c(N2CCN(C(=O)Cn3cc(CN4C(=O)C(=O)c5cccc(F)c54)nn3)C(C)C2)c(F)cc2c(=O)c(C(=O)O)cn(C3CC3)c12 (stereo not given) |  |  |  |  |  | 0.03 | 0.03 | 0.03 | 
6 | O=C(NCc1cn(CCCCCCn2cc(CNC(=O)Nc3ccc(Cl)cc3)nn2)nn1)Nc1ccc(Cl)cc1 | 6 | 6 (≈ 3.51 µg/mL) | 6 | 6 (≈ 3.51 µg/mL) | 6 |  |  |  | 
7 | CO/N=C1/C(=O)N(Cc2cn(CC(=O)N3CCN(c4c(F)cc5c(=O)c(C(=O)O)cn(C6CC6)c5c4OC)CC3C)nn2)c2c(F)cccc21 (stereo not given) |  |  |  |  |  | 0.03 | 0.03 | 0.03 | 
8 | COc1c(N2CCN(C(=O)Cn3cc(CN4C(=O)/C(=N/O)c5cc(C)ccc54)nn3)C(C)C2)c(F)cc2c(=O)c(C(=O)O)cn(C3CC3)c12 (stereo not given) |  |  |  |  |  | 0.03 | 0.03 | 0.03 | 
9 | O=c1cc(OCc2cn(-c3ccc(N4CCOCC4)c(F)c3)nn2)c2ccccc2o1 |  |  |  |  |  |  |  |  | MIC [15]: 25 µg/mL (≈ 59.2 µM); MIC [16]: 50 µg/mL (≈ 118 µM); MIC [17]: 25 µg/mL (≈ 59.2 µM)
10 | O=C(NCc1cn(Cc2cccc(Cn3cc(CNC(=O)Nc4ccc(Cl)cc4)nn3)c2)nn1)Nc1ccc(Cl)cc1 | 6 | 6 (≈ 3.63 µg/mL) | 6 | 6 (≈ 3.63 µg/mL) | 6 |  |  |  | 
11 | O=C(NCc1cn(CCCCn2cc(CNC(=O)Nc3ccc(F)cc3)nn2)nn1)Nc1ccc(F)cc1 | 6 | 6 (≈ 3.15 µg/mL) | 6 | 6 (≈ 3.15 µg/mL) | 6 |  |  |  | 
12 | Fc1cc(-n2cc(CSc3nc4ccccc4o3)nn2)ccc1N1CCOCC1 |  |  |  |  |  |  |  |  | MIC [15]: 6.25 µg/mL (≈ 15.2 µM); MIC [16]: 25 µg/mL (≈ 60.8 µM); MIC [17]: 12.5 µg/mL (≈ 30.4 µM)
13 | CC1(C)S[C@@H]2[C@H](NC(=O)Cc3ccccc3)C(=O)N2[C@H]1C(=O)O [PENICILLIN G] |  |  |  |  |  |  |  |  | MIC [15]: 3.12 µg/mL (≈ 9.33 µM); MIC [16]: 1.56 µg/mL (≈ 4.67 µM); MIC [17]: 1.56 µg/mL (≈ 4.67 µM)
14 | O=C(NCc1cn(CCCn2cc(CNC(=O)Nc3ccc(Cl)cc3)nn2)nn1)Nc1ccc(Cl)cc1 | 6 | 6 (≈ 3.26 µg/mL) | 6 | 6 (≈ 3.26 µg/mL) | 6 |  |  |  | 
15 | Fc1cc(-n2cc(COc3cccc(Cl)c3)nn2)ccc1N1CCOCC1 |  |  |  |  |  |  |  |  | MIC [15]: 50 µg/mL (≈ 129 µM); MIC [16]: 25 µg/mL (≈ 64.3 µM); MIC [17]: 25 µg/mL (≈ 64.3 µM)
16 | COc1c(N2CCN(C(=O)Cn3cc(CN4C(=O)C(=O)c5cc(C)ccc54)nn3)C(C)C2)c(F)cc2c(=O)c(C(=O)O)cn(C3CC3)c12 (stereo not given) |  |  |  |  |  | 0.03 | 0.03 | 0.03 | 
17 | O=C1CSc2ccccc2N1Cc1cn(-c2ccc(N3CCOCC3)c(F)c2)nn1 |  |  |  |  |  |  |  |  | MIC [15]: 25 µg/mL (≈ 58.8 µM); MIC [16]: 1.56 µg/mL (≈ 3.67 µM); MIC [17]: 6.25 µg/mL (≈ 14.7 µM)
18 | O=C(NCc1cn(CCCCCn2cc(CNC(=O)Nc3ccc(F)cc3)nn2)nn1)Nc1ccc(F)cc1 | 6 | 6 (≈ 3.23 µg/mL) | 6 | 6 (≈ 3.23 µg/mL) | 6 |  |  |  | 
19 | COc1c(N2CCN(C(=O)Cn3cc(CN4C(=O)/C(=N/O)c5ccccc54)nn3)C(C)C2)c(F)cc2c(=O)c(C(=O)O)cn(C3CC3)c12 (stereo not given) |  |  |  |  |  | 0.03 | 0.03 | 0.03 | 
20 | Cc1cc(=O)oc2cc(OCc3cn(-c4ccc(N5CCOCC5)c(F)c4)nn3)ccc12 |  |  |  |  |  |  |  |  | MIC [15]: 25 µg/mL (≈ 57.3 µM); MIC [16]: 25 µg/mL (≈ 57.3 µM); MIC [17]: 50 µg/mL (≈ 115 µM)
21 | COc1c(N2CCN(C(=O)Cn3cc(CN4C(=O)C(=O)c5cc(Cl)cc(Cl)c54)nn3)C(C)C2)c(F)cc2c(=O)c(C(=O)O)cn(C3CC3)c12 (stereo not given) |  |  |  |  |  | 0.03 | 0.03 | 0.03 | 
22 | COc1ccc(NC(=O)NCc2cn(Cc3cccc(Cn4cc(CNC(=O)Nc5ccc(OC)cc5)nn4)c3)nn2)cc1 | 6 | 6 (≈ 3.58 µg/mL) | 6 | 6 (≈ 3.58 µg/mL) | 6 |  |  |  | 
23 | O=C(NCc1cn(CCCCCCn2cc(CNC(=O)Nc3ccc(F)cc3)nn2)nn1)Nc1ccc(F)cc1 | 6 | 6 (≈ 3.32 µg/mL) | 6 | 6 (≈ 3.32 µg/mL) | 6 |  |  |  | 

— ChEMBL document CHEMBL5634077, “Recent advances in 1,2,3- and 1,2,4-triazole hybrids as antimicrobials and their SAR: A critical review” (2023)
